The values below come from patent US20220280594A1, “APPLICATION OF POLYPEPTIDE OR DERIVATIVE THEREOF” (CHENGDU HUITAI BIOMEDICINE CO., LTD., priority 2019, published 2022).

Type in all cases: cell-based
For test [1], the system named is human oral epidermoid carcinoma KB cells. The test can be described thus: scratch assay, migration of KB cells. The note with it: 10 μM, 48 hours, control group 54.03 ± 4.21. The protocol:
(§1) In the scratch assay, the cell migration rate was negatively correlated with the inhibitory effect of the drug component on tumor cell migration ability. The cell migration inhibition experiment was described as follows: tumor cells were cultured in vitro, cells in logarithmic growth phase were collected and seeded evenly in a 24-well plate at a density of 1-2×10^5 cells/well; the cells were cultured in a cell incubator until a monolayer was formed; a scratch tool was used to make a “-” (straight) scratch on the monolayer of cells; the cells were washed 1-3 times with PBS, and a medium (with 2% fetal bovine serum) containing specific test components was added to the culture. Experimental grouping: PBS control group; polypeptide or derivative thereof treatment group (N1-N54), 10 μM. Three independent parallel wells were set up in each group, and the cells were cultured continuously in a cell incubator for 48 hours. […] At least 3 representative images for each well were taken. ImageJ software was used to count the migration distance of the cells, and the cell migration rate was calculated as: cell migration rate (%)=(width of original scratch−width of current scratch)/width of original scratch×100.
This example was a scratch assay to evaluate the inhibitory effect of the polypeptide or derivative thereof (N1-N54) on the migration ability of human oral epidermoid carcinoma cells (KB). The experimental method was as described in Example 2.

The test system of test [2] is human lung squamous carcinoma cells (NCI-H226). The test can be described thus: scratch assay, migration of NCI-H226 cells. The note with it: NCI-H226, 10 μM, 48 hours; control group 65.31 ± 3.19. How it is done:
as §1
This example was a scratch assay to evaluate the inhibitory effect of the polypeptide or derivative thereof (N1-N54) on the migration ability of human lung squamous carcinoma cells (NCI-H226). The experimental method was as described in Example 2.

Test [3] has as its system human lung cancer cells (95D). The test can be described thus: scratch assay, migration of 95D cells. The note with it: 10 μM, 48 hours, control group 55.3 ± 3.19. The protocol:
as §1
This example was a scratch assay to evaluate the inhibitory effect of the polypeptide or derivative thereof (N1-N54) on the migration ability of human lung cancer cells (95D). The experimental method was as described in Example 2.

For test [4], the system named is human liver adenocarcinoma cells (SK-HEP-1). The test can be described thus: transwell migration assay, SK-HEP-1 cells. The note with it: SK-HEP-1 transwell migration, 10 μM, 24 hours; control group 1 782 ± 108, control group 2 768 ± 86. How it is done: The Transwell chamber system was used in the transwell cell migration experiment. The chamber has an upper layer and a lower layer, which are separated by an artificial semipermeable membrane in the middle. Cells that have migrated through the semi-permeable membrane will attach to the lower surface of the semi-permeable membrane. The migration ability is evaluated by counting the number of cells on the lower surface of the semi-permeable membrane. The number of cells that have migrated is negatively correlated with the inhibitory effect of the drug on the migration ability of the tumor cells. Transwell migration assay was performed as follows: tumor cells were cultured in vitro, cells in logarithmic growth phase were collected, and cell suspension was prepared with fresh serum-free medium at a density of 2-3×10^5 cells/mL. Cells were inoculated, 100 μL/well cell suspension (serum-free medium) in the upper chamber and 600 μL/well complete culture medium in the lower chamber. After incubated in 37° C., 5% CO2 incubator for 4-5 hours, serum-free medium (100 μL/well) was added to the control group, and serum-free medium containing polypeptide or derivative thereof (N1-N54) was added to the upper chamber of the treatment group (100 μL/well), the final concentration of the peptide or derivative thereof in the upper chamber was 10 μM. The cells were incubated continuously for 24 hours, and then fixed with methanol and stained with crystal violet. Images were taken under a microscope and the number of migrated cells was counted with ImageJ.
This example was a transwell cell migration experiment to evaluate the inhibitory effect of the polypeptide or derivative thereof (N1-N54) on the migration ability of human liver adenocarcinoma cells (SK-HEP-1). The experimental method was as described in Example 3.

Test [5] concerns human prostate cancer cells (22RV1). The test can be described thus: scratch assay, migration of 22RV1 cells. The note with it: 22RV1, 10 μM, 48 hours; control group 25.41 ± 5.01. How it is done:
as §1
This example was a scratch assay to evaluate the inhibitory effect of the polypeptide or derivative thereof (N1-N54) on the migration ability of human prostate cancer cells (22RV1). The experimental method was as described in Example 2.

Test [6] deals with human thyroid cancer cells (FRO). The test can be described thus: scratch assay, migration of FRO cells. The note with it: 10 μM, 48 hours, control group 60.34 ± 8.32. The protocol: as §1
This example was a scratch assay to evaluate the inhibitory effect of the polypeptide or derivative thereof (N1-N54) on the migration ability of human thyroid cancer cells (FRO). The experimental method was as described in Example 2.

Test [7] deals with human liver adenocarcinoma cells (SK-HEP-1). The test can be described thus: transwell invasion assay, SK-HEP-1 cells. The note with it: SK-HEP-1 transwell invasion, 10 μM, 24 hours; control group 767 ± 91. From the text:
The Transwell chamber system was used in the transwell cell invasion experiment. The chamber has an upper layer and a lower layer, which are separated by an artificial semipermeable membrane in the middle. The upper surface of the semipermeable membrane is coated with a layer of artificial matrigel to simulate extracellular matrix. Cells that have invaded through the matrigel and semi-permeable membrane will attach to the lower surface of the semi-permeable membrane. The invasion ability is evaluated by counting the number of cells on the lower surface of the semi-permeable membrane. The number of cells that have invaded is negatively correlated with the inhibitory effect of the drug on the invasion ability of the tumor cells. Transwell invasion assay was performed as follows: tumor cells were cultured in vitro, cells in logarithmic growth phase were collected, and cell suspension was prepared with fresh serum-free medium at a density of 2-3×10^5 cells/mL. Cells were inoculated, 100 μL/well cell suspension (serum-free medium) in the upper chamber and 600 μL/well complete culture medium in the lower chamber. After incubated in 37° C., 5% CO2 incubator for 4-5 hours, serum-free medium (100 μL/well) was added to the control group, and serum-free medium containing polypeptide or derivative thereof (N1-N54) was added to the upper chamber of the treatment group (100 μL/well), the final concentration of the peptide or derivative thereof in the upper chamber was 10 μM. The cells were incubated continuously for 24 hours, and then fixed with methanol and stained with crystal violet. Images were taken under a microscope and the number of invaded cells was counted with ImageJ.
This example was a transwell cell invasion experiment to evaluate the inhibitory effect of the polypeptide or derivative thereof (N1-N54) on the invasion ability of human liver adenocarcinoma cells (SK-HEP-1). The experimental method was as described in Example 4.

Test [8] deals with human pharyngeal squamous-cell carcinoma cells (Fadu). The test can be described thus: scratch assay, migration of Fadu cells. The note with it: 10 μM, 48 hours, control group 28.76 ± 4.08. The protocol: as §1
This example was a scratch assay to evaluate the inhibitory effect of the polypeptide or derivative thereof (N1-N54) on the migration ability of human pharyngeal squamous-cell carcinoma cells (Fadu). The experimental method was as described in Example 2.

Ends that are not written are not given here. PEG = not defined here

Regarding “N9: SEQ ID NO: 1 with deletion of positions 15-18 and PEG modification at the amino terminal ({PEG}-YRVRFLAKENVTQD; reading uncertain)”, the “Migration rate (%) (mean ± SD, P)” value in test [1] is 9.27 ± 2.63,*** %; in test [2] it was 35.47 ± 5.20,** %; in test [3], 32.27 ± 4.69,** %; in test [5], 14.84 ± 2.96,* %; in test [6] it was 20.51 ± 5.04,** %; in test [8] it was 16.82 ± 3.57,* %. Further, the “Number of cells (mean ± SD, P), migrated cells” value in test [4] is 174 ± 15,****. In addition, in test [7], the “Number of cells (mean ± SD, P), invaded cells” value was 288 ± 35,***.
As to “N10: SEQ ID NO: 1 with deletion of positions 15-18 and 1-3 and PEG modification at the carboxyl terminal (RFLAKENVTQD-{PEG}; reading uncertain)”, the “Migration rate (%) (mean ± SD, P)” value in test [1] is 13.87 ± 3.48,*** %; in test [2] it was 17.75 ± 5.87,*** %; in test [3] it was 34.35 ± 5.74,** %; in test [5] it was 13.39 ± 2.3,* %; in test [6], 14.14 ± 3.64,*** %; in test [8], 15.93 ± 4.73,* %. In addition, the “Number of cells (mean ± SD, P), migrated cells” value in test [4] is 54 ± 5,****. Besides, the “Number of cells (mean ± SD, P), invaded cells” value in test [7] is recorded as 460 ± 43,**.
For the substance “N11: SEQ ID NO: 1 with deletion of positions 15-18 and 1-3 and PEG modification at the amino terminal ({PEG}-RFLAKENVTQD; reading uncertain)”, the “Migration rate (%) (mean ± SD, P)” value is 8.29 ± 1.96,*** % in test [1]; 21.77 ± 5.03,*** % in test [2]; 28.28 ± 3.68,*** % in test [3]; 9.43 ± 2.23,** % in test [5]; 10.09 ± 4.33,*** % in test [6]; 19 ± 5.37,* % in test [8]. Also, in test [4], the “Number of cells (mean ± SD, P), migrated cells” value is given as 80 ± 6,****. In addition, the “Number of cells (mean ± SD, P), invaded cells” value in test [7] is given as 398 ± 36,***.
“N12: SEQ ID NO: 1 with deletion of position 18 and positions 1-2 (VRFLAKENVTQDAED)”: the “Migration rate (%) (mean ± SD, P)” value in test [1] was 11.53 ± 2.78,*** %; in test [2] it was 13.18 ± 6.31,*** %; in test [3] it was 28.72 ± 2.96,** %; in test [5], 6.61 ± 2.83,** %; in test [6], 7.67 ± 3.29,*** %; in test [8], 17.72 ± 2.53,** %. In addition, in test [4], the “Number of cells (mean ± SD, P), migrated cells” value is 405 ± 49,**. In addition, the “Number of cells (mean ± SD, P), invaded cells” value in test [7] is on record as 308 ± 42,***.
Regarding “N13: SEQ ID NO: 1 with deletion of positions 15-18 and positions 1-5 (LAKENVTQD)”, the “Migration rate (%) (mean ± SD, P)” value is 14.53 ± 3.53,** % in test [1]; 11.29 ± 8.97,*** % in test [2]; 21.2 ± 4.41,*** % in test [3]; 9.77 ± 3.66,* % in test [5]; 11.99 ± 2.39,*** % in test [6]; 9.38 ± 2.46,*** % in test [8]. Moreover, the “Number of cells (mean ± SD, P), migrated cells” value in test [4] is reported as 25 ± 12,****. Moreover, the “Number of cells (mean ± SD, P), invaded cells” value in test [7] is listed as 258 ± 32,****.
Take “N14: SEQ ID NO: 1 with deletion of positions 1-5 and addition of one amino acid at the carboxyl terminal (LAKENVTQDAEDNC)”: the “Migration rate (%) (mean ± SD, P)” value in test [1] is given as 11.22 ± 2.66,*** %; in test [2], 19.97 ± 2.94,*** %; in test [3], 32.55 ± 5.71,** %; in test [5] it was 14.06 ± 2.37,* %; in test [6], 14.09 ± 2.47,*** %; in test [8], 12.90 ± 2.47,** %. Also, in test [4], the “Number of cells (mean ± SD, P), migrated cells” value is 61 ± 14,****. The “Number of cells (mean ± SD, P), invaded cells” value in test [7] is reported as 329 ± 54,***.
In the case of “N15: SEQ ID NO: 1 with substitution N18R and addition of one amino acid to the carboxyl terminal (YRVRFLAKENVTQDAEDRC)”, the “Migration rate (%) (mean ± SD, P)” value in test [1] is reported as 40.62 ± 3.53,* %; in test [2] it was 35.05 ± 3.95,** %; in test [3], 24.09 ± 6.40,** %; in test [5] it was 8.36 ± 2.03,** %; in test [6] it was 8.84 ± 2.27,*** %; in test [8], 12.45 ± 4.28,** %. For the same substance, the “Number of cells (mean ± SD, P), migrated cells” value in test [4] is on record as 131 ± 10,****. The “Number of cells (mean ± SD, P), invaded cells” value in test [7] is recorded as 418 ± 36,**.
Regarding “N16: SEQ ID NO: 1 with substitution A7R and addition of one amino acid at the carboxyl terminus (YRVRFLRKENVTQDAEDNC)”, the “Migration rate (%) (mean ± SD, P)” value in test [1] was 18.28 ± 3.45,** %; in test [2] it was 21.10 ± 8.01,*** %; in test [3] it was 17.00 ± 8.00,** %; in test [5], 9.75 ± 2.14,** %; in test [6], 11.72 ± 4.41,*** %; in test [8], 5.51 ± 1.32,*** %. For the same substance, in test [4], the “Number of cells (mean ± SD, P), migrated cells” value was 74 ± 18,****. In addition, the “Number of cells (mean ± SD, P), invaded cells” value in test [7] is listed as 398 ± 43,***.
